Reference: article PMC4411097, “Pachymic Acid Inhibits Growth and Induces Apoptosis of Pancreatic Cancer In Vitro and In Vivo by Targeting ER Stress” (PLoS ONE, 2015)

Key:
[1] = tested on: MIA PaCa-2 cells; test: Apoptosis, Cell Death Detection ELISA (cytoplasmic histone-associated DNA fragments); format: cell-based, human; conditions: MIA PaCa-2, PA 0–30 μM, 24 h, relative to vehicle-treated cells (=1)
Procedure: (§1) Apoptosis induction in PA-treated cells was assessed by quantitation of cytoplasmic histone-associated DNA fragments and western blotting for PARP cleavage (c-PARP). The Cell Death Detection ELISA^PLUS Kit (Roche, Indianapolis, IN) was used to detect the amount of cytoplasmic histone-associated DNA fragments according to the manufacturer’s instructions and expressed relative to vehicle-treated cells (set equal to 1).

[2] = tested on: PANC-1 cells; test: as above; format: cell-based, human; conditions: PANC-1, PA 0–30 μM, 24 h, relative to vehicle-treated cells (=1)
Procedure: as §1

[3] = tested on: PARP cleavage (c-PARP) in MIA PaCa-2 cells; test: Western blot for PARP cleavage (c-PARP); format: cell-based, human; conditions: MIA PaCa-2, PA 0–30 μM, 24 h
Procedure: as §1
(§2) PANC-1, MIA PaCa-2 cells were treated with PA (0–30 μM) for 10 min, 30 min or 24 h, respectively. Whole protein extracts isolated from cells and tumor tissues were prepared and western blot analysis with anti-cleaved PARP, anti-XBP-1s, anti-ATF6, anti-ATF4, anti-Hsp70, anti-CHOP, anti-phospho-eIF2α or anti-eIF2α antibodies were performed as previously described. Western blots were quantified with HP-Scanjet 550c and analyzed by UN-SCAN-IT software (Silk Scientific, Orem, UT). Three independent experiments were done for all the immunoblot studies and quantitative data composed of all the experiments with statistical analysis were added below the representative blot image.

[4] = tested on: PARP cleavage (c-PARP) in PANC-1 cells; test: Western blot for PARP cleavage (c-PARP); format: cell-based, human; conditions: PANC-1, PA 0–30 μM, 24 h
Procedure: as §1, §2

[5] = tested on: ER stress response proteins in MIA PaCa-2 cells; test: Western blot of ER stress response proteins; format: cell-based, human
Procedure: as §2

[6] = tested on: ER stress response proteins in PANC-1 cells; test: Western blot of ER stress response proteins; format: cell-based, human
Procedure: as §2

[7] = tested on: MIA PaCa-2 tumor xenograft; test: Human pancreatic tumor xenograft experiment; format: in vivo, female nude mice; conditions: day 34; for Average tumor volume: control approximately 448 mm^3
Procedure: Animal experiments were conducted strictly in accordance with the protocol approved by the Animal Research Committee at the Methodist Hospital (protocol no. 2011–07). MIA PaCa-2 cells (3x10^6) in 100 μl DPBS were implanted subcutaneously in the right flank on the ventral side of the 6 weeks old female nude mice (Harlan, Indianapolis, IN, USA). When tumors became palpable after 1–3 weeks (40–60 mm^3), animals were randomly assigned into three groups (n = 15) and received intraperitoneal (i.p.) injection 3 times per week of vehicle or PA (25 mg kg^-1 and 50 mg kg^-1) of body weight for additional 5 weeks. Tumor sizes were measured 3 times per week with microcalipers and the tumor volumes were calculated with the standard formula: tumor volume (mm^3) = L x W^2 x 0.5, where L is the length and W is the width of the tumor. At the end of the experiment (Day 35), the mice were euthanized by CO2 inhalation. The tumors were harvested and fixed in 10% neutral-buffered formalin at 4°C for 24 h or snap frozen and stored separately in liquid nitrogen.

[8] = tested on: MIA PaCa-2 tumor xenograft; test: Apoptosis measurement in tumor xenograft (apoptotic bodies, H&E); format: in vivo, female nude mice
Procedure: All formalin-fixed tumors were embedded in paraffin within 48 h and five-micrometer sections were stained with hematoxylin and eosin (H&E). The slides were viewed under a Leica microscope (Leica Instruments, Melville, NY) and apoptosis in the viable tumor cell area was quantified by counting apoptotic bodies in four 20 x fields of view for n = 6–12 tumors per group by 2 independent observers.

[9] = tested on: HSPA6 and CHOP in MIA PaCa-2 tumor tissues; test: Quantitative RT-PCR of tumor tissues; format: in vivo, female nude mice; conditions: 25 mg kg^-1, vs controls
Procedure: The quantitative real-time polymerase chain reaction (qRT-PCR) was performed using ABI PRISM 7900HT Fast Real-Time PCR System (Applied Biosystems, Foster City, CA) according to the manufacturer's instructions. Total RNA was isolated from tumors with RNeasy Mini Kit (Qiagen, Valencia, CA). RNA quality was monitored and quantified using the Qubit 2.0 Fluorometer (Invitrogen, Carlsbad, CA). The RNA samples were reverse transcribed into cDNA using High Capacity cDNA Reverse Transcription Kit (Applied Biosystems, Foster City, CA). The cDNA (100 ng per sample) was subjected to qPCR analysis in triplicate. Analysis of the relative quantity gene expression (RQ) of HSPA6 and CHOP was normalized by ACTB expression and was performed using the 2^-ΔΔCt method.

[10] = tested on: ATF4 and CHOP in MIA PaCa-2 tumor tissues; test: Western blot of tumor tissues; format: in vivo, female nude mice; conditions: 25 mg kg^-1, vs controls
Procedure: as §2

[11] = tested on: PANC-1; set-up: method as in PMID 23588713; conditions: PANC-1, 24 h; read-out: IC50-24 h, inhibition of proliferation; cited from earlier work
[12] = tested on: MIA PaCa-2; set-up: method as in PMID 23588713; conditions: MIA PaCa-2, 24 h; read-out: IC50-24 h, inhibition of proliferation; cited from earlier work
[13] = tested on: normal pancreatic duct epithelial cells HPDE-6; set-up: method as in PMID 23588713; conditions: cited from earlier work
[14] = set-up: method as in PMID 22213174; conditions: rats fed by P. cocos; cited from earlier work
[15] = 25 mg kg^-1 i.p. 3 times per week
[16] = 50 mg kg^-1 i.p. 3 times per week

## C=C(CC[C@@H](C(=O)O)[C@H]1[C@H](O)C[C@@]2(C)C3=C(CC[C@]12C)[C@@]1(C)CC[C@H](OC(C)=O)C(C)(C)[C@@H]1CC3)C(C)C [PA, Pachymic acid]
[1]
  PA-induced apoptosis vs control: ~8 fold
[2]
  PA-induced apoptosis vs control: ~19 fold
[3]
  Increase in expression of PARP cleavage vs vehicle-treated control: ~4 fold
[4]
  Increase in expression of PARP cleavage vs vehicle-treated control: approximately 3 fold
[5]; MIA PaCa-2, 30 μM PA, 10 min
  PA-phosphorylated eIF2α vs control: ~3 fold
[5]; MIA PaCa-2, PA 0–30 μM, 24 h
  Activation of XBP1 and ATF4 (protein level): significantly activated
[6]; PANC-1, 30 μM PA, 10 min
  PA-phosphorylated eIF2α vs control: ~2 fold
[6]; PANC-1, PA 0–30 μM, 24 h
  Activation of XBP1 and ATF4 (protein level): significantly activated
[7]; [15]
  Inhibition of tumor volume vs control: ~75%
  Average tumor volume: about 112 mm^3
[7]; [16]
  Inhibition of tumor volume vs control: ~80%
  Average tumor volume: ~89 mm^3
[8]; 25 mg kg^-1
  Increase of apoptotic bodies in tumors vs control: approximately 59%
[8]; 50 mg kg^-1
  Increase of apoptotic bodies in tumors vs control: ~2 fold
[9]
  Significant increase of HSPA6 and CHOP/GADD153 mRNA in tumors: not observed
[10]
  Expression of ATF4 and CHOP proteins in tumors: significant increase
[11]
  IC50: 23.5 µM
[12]
  IC50: 26.6 µM
[13]
  Effect on growth of normal pancreatic duct epithelial cells: only slightly affects
[14]
  Presence in urine and plasma: detectable
